Results as given in patent publication US20010051630A1, “Use of hydroxylamine derivatives, and method and preparations for increasing the tolerance of field crops against weather stresses” (priority 1997, published 2001).
Marks after values point to notes of the source that are not given here.

Legend:
Mo 17 maize inbred line = test: Chilling tolerance of maize in a gradient chamber; type: in vivo
Protocol: The experiment was performed using the Mo 17 maize inbred line. The seeds were coated with a 2% solution of the examined compound dissolved in 2 ml polyvinylalcohol before germination, where the above quantity of solution is applied for 100 seeds. The seeds were germinated for 3 days wrapped in wet filter paper, they were sown and then cultivated in gradient chamber for 6 weeks. In the gradient chamber, the temperature was maintained on a scale between 18 and 12° C., with differences of 1° C. This was followed by a one week regeneration at 23/20° C. temperature.
In the experiment, the length of the plants was measured 16, 31 and 43 days after the sowing, and at the end of the experiment the fresh weight of the plants was measured. The experiment was performed on 4 plants at each temperature and by each treatment.

McCall soybeans [1] = test: CSVT, McCall soybeans; type: in vivo, soybean
Protocol: (§1) In this experiment the tolerance of maize, soybean and pepper seeds treated with the active agent against cold was tested. This test imposed temperature and oxygen deficiency stresses on the seeds and was carried out according to Barla-Szabó and Dolinka CSVT (Complex Stressing Vigour Test). For a single test, two hundred seeds were soaked for 48 hours at 25° C. and another 48 hours at 5° C in 150 ml distilled water containing the active agent in 10 mg/l concentration. Following the 96 hours of soaking, the seeds were further germinated between rolled wet paper for 96 hours at 25° C. There were 25 seeds in each roll, the rolls were placed vertically into containers and covered with a plastic bag in order to reduce evaporation. During the whole procedure the seeds were kept in darkness.
(§2) At the end of the experiment the number of normally developing and ungerminated seeds were recorded. The length of the normal seedlings was measured and the average length of the five longest seedlings was calculated. Seedlings longer than 0.33 times the average length of the five longest seedlings were considered to be of high vigour, and low vigour seedlings were shorter than this length.
When applying the CSVT test, the following results were obtained (Table 4.).

Mo 17 inbred maize line = test: CSVT (Complex Stressing Vigour Test), seeds soaked in active agent, Mo 17 maize; type: in vivo; conditions: seeds soaked in 10 mg/l active agent, * = significant vs control P < 0.05
Protocol: as §1, with “darkness. At the end of the experiment the number of normally developing and ungerminated seeds were recorded. The length of the normal seedlings was measured and the average length of the five longest seedlings was calculated. Seedlings longer than 0.33 times the average length of the five longest seedlings were considered to be of high vigour, and low vigour seedlings were shorter than this length.” for “darkness.”

[2] = test system: maize of high chilling tolerance (HT) population; test: CSVT, maize population of high chilling tolerance (HT); type: in vivo
Protocol: as §1, §2
In the case of a further experiment with maize of low chilling tolerance (LT) and high chilling tolerance (HT) populations [Ref: P. Landi, E. Frascaroli, A. Lovato; EUPHYTICA 64 21-29 (1992)], the following positive effects were found (Table 3.).

Seaway bean cultivar = test: Drought tolerance of beans, part a (5 days hardening); type: in vivo; conditions: 7 days without water, one week regeneration
From the text: (§3) Based on the experiences of our preliminary experiments, the plants were hardened before the application of the active agent by withholding the water for a few days, until the first signs of withering appeared. Then the plants were watered and the active agent was either dissolved in the water, or sprayed to the plants directly. Afterwards, the plants were subjected to different periods of drought according to the given experiment, watered again, and after a week-long regeneration period, the survival ratio was determined.
a) Seaway bean cultivar was hardened for 5 days by withholding the water. Afterwards the plantlets were watered for two days normally. During this time, a 10 mg/liter and 100 mg/liter concentration solution of the active agent was applied two times a day dissolved in water or by direct spraying. Then the water was withheld for 7 days, and after a week-long regeneration period, the survival ratio was determined.

bean plants (cv. Seaway) = test: Drought tolerance of beans, part b (7 days hardening); type: in vivo; conditions: 7 days without water, 10 mg/liter and 100 mg/liter solution named, table does not say which
From the text: as §3
b) In this experiment, bean plants (cv. Seaway) were hardened for 7 days instead of the 5 days described in Part a. Then a 10 mg/liter and 100 mg/liter concentration solution of the active agent was applied two times a day for two days. Then 7 days without water followed, and after a week-long regeneration period, the results of the experiment were evaluated.

soybean cv. Bólyi 44 = test: Drought tolerance of soybeans; type: in vivo; conditions: 6 days hardening; 50 mg/liter in the water; 4 days without watering, one week regeneration
Protocol: Soybeans of soybean cv. Bólyi 44 were hardened for 6 days by withholding the water. This was followed by two days of watering, and the active agent was applied in the water. The concentration of the solution of the active agent was 50 mg/liter. After a 4-day-long cease of watering and a one week regeneration period, the number of surviving plants was recorded.
Watering was ceased for 10 days for a certain group of plants in the experiment. It was observed that almost every plant perished. Each of the 4 surviving plants had previously been treated with the active agent.

McCall soybeans [3] = test: CSVT with PVA-pearled McCall soybeans, relative length; type: in vivo, soybean; conditions: 2.5 mg in 1 ml 2.5% PVA per 100 seeds
Protocol: as §1
In a further CSVT experiment also using McCall soybeans, polyvinylalcohol (PVA) was applied for pearling the seeds. The 2.5 mg doses of the active agents were dissolved in 1 ml of 2.5% PVA solution, and this quantity was applied to 100 pieces of seeds. The improvement of the chilling tolerance is observed by the significant elongation of the germ and the roots.

Question: Which results are given for `CC(C)(C)NCC(O)CONC(=O)c1cccc(C(F)(F)F)c1.Cl` (centres unmarked) [Compound 1, N-[2-hydroxy-3-(1,1-dimethylethyl-amino)propoxy]-3-trifluoromethyl-benzamide monohydrochloride]?
Answer: Length (cm) (Mo 17 maize inbred line; 12° C., 16 days): 5.0 cm; Length (cm) (Mo 17 maize inbred line; 12° C., 31 days): 7.9 cm; FW (g), fresh weight (Mo 17 maize inbred line; 12° C., 43 days): 1.2 g; Length (cm) (Mo 17 maize inbred line; 12° C., 43 days): 18.9 cm; Length (cm) (Mo 17 maize inbred line; 13° C., 16 days): 6.0 cm; Length (cm) (Mo 17 maize inbred line; 13° C., 31 days): 10.1 cm; FW (g), fresh weight (Mo 17 maize inbred line; 13° C., 43 days): 1.0 g; Length (cm) (Mo 17 maize inbred line; 13° C., 43 days): 16.0 cm; Length (cm) (Mo 17 maize inbred line; 14° C., 16 days): 7.6 cm; Length (cm) (Mo 17 maize inbred line; 14° C., 31 days): 15.4 cm; FW (g), fresh weight (Mo 17 maize inbred line; 14° C., 43 days): 2.7 g; Length (cm) (Mo 17 maize inbred line; 14° C., 43 days): 25.9 cm; Length (cm) (Mo 17 maize inbred line; 15° C., 16 days): 10.0 cm; Length (cm) (Mo 17 maize inbred line; 15° C., 31 days): 17.7 cm; FW (g), fresh weight (Mo 17 maize inbred line; 15° C., 43 days): 3.6 g; Length (cm) (Mo 17 maize inbred line; 15° C., 43 days): 28.5 cm; Length (cm) (Mo 17 maize inbred line; 16° C., 16 days): 15.2 cm; Length (cm) (Mo 17 maize inbred line; 16° C., 31 days): 24.8 cm; FW (g), fresh weight (Mo 17 maize inbred line; 16° C., 43 days): 4.5 g; Length (cm) (Mo 17 maize inbred line; 16° C., 43 days): 32.3 cm; Length (cm) (Mo 17 maize inbred line; 17° C., 16 days): 17.0 cm; Length (cm) (Mo 17 maize inbred line; 17° C., 31 days): 27.7 cm; FW (g), fresh weight (Mo 17 maize inbred line; 17° C., 43 days): 5.5 g; Length (cm) (Mo 17 maize inbred line; 17° C., 43 days): 36.5 cm; Length (cm) (Mo 17 maize inbred line; 18° C., 16 days): 13.2 cm; Length (cm) (Mo 17 maize inbred line; 18° C., 31 days): 28.4 cm; FW (g), fresh weight (Mo 17 maize inbred line; 18° C., 43 days): 6.0 g; Length (cm) (Mo 17 maize inbred line; 18° C., 43 days): 37.0 cm; Ratio of high vigour plants (%) (McCall soybeans [1]): 43* %; Ratio of high vigour plants (%) (Mo 17 inbred maize line): 29* %; Ratio of high vigour plants %, HT [2]: 98* %; survival (%), Spraying (100 mg/l) (Seaway bean cultivar): 71* %; survival (%), Watering (10 mg/l) (Seaway bean cultivar): 30* %; survival (%), Watering (100 mg/l) (Seaway bean cultivar): 41* %; Survival (%) (bean plants (cv. Seaway)): 14* %; Survival (%) (soybean cv. Bólyi 44): 25* %; Relative length (control = 100), germ (McCall soybeans [3]): 106; Relative length (control = 100), root (McCall soybeans [3]): 128
